Experimental data as given in ChEMBL document CHEMBL1159291, “Bioactive Constituents from the Flower Buds and Peduncles of Lindera megaphylla” (J Nat Prod, 1995).

Columns and labels:
Aorta [1] = assay: Inhibition of norepinephrine-induced contraction in Wistar rat aorta assessed as contraction at 60 uM preincubated 15 mins before addition of norepinephrine relative to control; assay type: functional; design: scale not given: the % may be the effect or the level left
Aorta [2] = assay: Inhibition of norepinephrine-induced contraction in Wistar rat aorta assessed as contraction at 120 uM preincubated 15 mins before addition of norepinephrine relative to control; assay type: functional; design: scale not given: the % may be the effect or the level left
Aorta [3] = assay: Inhibition of KCl-induced contraction in Wistar rat aorta assessed as contraction at 60 uM preincubated 15 mins before addition of KCl relative to control; assay type: functional; design: scale not given: the % may be the effect or the level left
Platelet [4] = assay: Inhibition of arachidonic acid-induced rabbit platelet aggregation assessed as aggregation at 300 uM preincubated 3 mins before arachidonic acid challenge by turbidimetric method; assay type: functional, Oryctolagus cuniculus; design: scale not given: the % may be the effect or the level left
Aorta [5] = assay: Inhibition of KCl-induced contraction in Wistar rat aorta assessed as contraction at 120 uM preincubated 15 mins before addition of KCl relative to control; assay type: functional; design: scale not given: the % may be the effect or the level left
Platelet [6] = assay: Inhibition of collagen-induced rabbit platelet aggregation assessed as aggregation at 300 uM preincubated 3 mins before collagen challenge by turbidimetric method; assay type: functional, Oryctolagus cuniculus; design: scale not given: the % may be the effect or the level left
Platelet [7] = assay: Inhibition of arachidonic acid-induced rabbit platelet aggregation assessed as aggregation at 50 uM by turbidimetric method; assay type: functional, Oryctolagus cuniculus; design: scale not given: the % may be the effect or the level left
Platelet [8] = assay: Inhibition of collagen-induced rabbit platelet aggregation assessed as aggregation at 50 uM by turbidimetric method; assay type: functional, Oryctolagus cuniculus; design: scale not given: the % may be the effect or the level left
[9] = Induction of rabbit platelet aggregation at 300 uM by turbidimetric method; assay type: cell-based, Oryctolagus cuniculus
Aorta [10] = assay: Inhibition of norepinephrine-induced contraction in Wistar rat aorta assessed as contraction at 9 uM preincubated 15 mins before addition of norepinephrine relative to control; assay type: functional; design: scale not given: the % may be the effect or the level left
Aorta [11] = assay: Inhibition of KCl-induced contraction in Wistar rat aorta assessed as contraction at 9 uM preincubated 15 mins before addition of KCl relative to control; assay type: functional; design: scale not given: the % may be the effect or the level left
Aorta [12] = assay: Inhibition of norepinephrine-induced contraction in Wistar rat aorta assessed as contraction at 1 uM preincubated 15 mins before addition of norepinephrine relative to control; assay type: functional; design: scale not given: the % may be the effect or the level left
Aorta [13] = assay: Inhibition of KCl-induced contraction in Wistar rat aorta assessed as contraction at 1 uM preincubated 15 mins before addition of KCl relative to control; assay type: functional; design: scale not given: the % may be the effect or the level left

SMILES | Activity (Aorta [2]) [%] | Activity (Platelet [4]) [%] | Activity (Aorta [5]) [%] | Activity (Platelet [6]) [%] | Activity [9] | further results
COc1ccc2c(c1OC)-c1c3c(cc4c1[C@H](C2)N(C)CC4)OCO3 | 22.9 | 73 | 55.2 | 60.8 |  | Activity (Aorta [1]): 68.1%; Activity (Aorta [3]): 88.5%
CC(=O)Oc1ccccc1C(=O)O [ASPIRIN] |  |  |  |  |  | Activity (Platelet [7]): 0%; Activity (Platelet [8]): 85.4%
COc1cc2cc3c4c(cc5c(c4c2cc1OC)OCO5)CCN3C [DEHYDRODICENTRINE] | 95.5 |  | 108 |  | Not Active | 
COc1cc2c(cc1OC)-c1c3c(cc4c1[C@H](C2)N(C)CC4)OCO3 [DICENTRINE] |  | 0 |  | 3.1 |  | Activity (Aorta [10]): 22.5%; Activity (Aorta [11]): 77.5%
COc1cc2c(cc1OC)-c1c3c(cc4ccnc(c14)C2=O)OCO3 [DICENTRINONE] | 112.4 |  | 102.1 |  | Not Active | 
COC(=O)C1=C(C)NC(C)=C(C(=O)OC)C1c1ccccc1[N+](=O)[O-] [NIFEDIPINE] |  |  |  |  |  | Activity (Aorta [12]): 96.5%; Activity (Aorta [13]): 0%
